Patent US10688169B2 (priority 2015, dated 2020)
“Also recorded” adds a separate entry of the source.

Tested on: ZIKA rabbits
Format: in vivo
Details: rabbits n=3 immunized with CRM197-23* in alhydrogel day 0 and 14; sera before and after immunization

## C[C@@H]1O[C@@H](O[C@H]2C(C(=O)O)O[C@H](OC3C(O)[C@@H](O)[C@H](C)O[C@H]3OC3C(O)[C@@H](O)[C@H](C)O[C@H]3OC3C(O)[C@@H](O)[C@H](C)O[C@H]3OCCCCCN)C(O)[C@H]2O[C@@H]2OC(CO)[C@H](O)[C@H](O)C2O)C(O)C(O)[C@H]1O (stereo partly drawn) [hexasaccharide 23*, 5-Amino-pentanyl α-L-rhamnopyranosyl-(1→4)-[P3-D-galactopyranosyl-(1→3)]-α-D-galactopyranosyluronic acid-(1→2)-α-L-rhamnopyranosyl-(1→2)-α-L-rhamnopyranosyl-(1→2)-α-L-rhamnopyranoside]
  immunogenicity and cross-reactivity of antibodies by glycan microarray: specific antibodies are cross-reactive with native polysaccharide and other synthetic glycans; also recorded: immunogenic in rabbits and induces cross-reactive antibodies
